This is an account of results in publication PMC11306024, “Novel metabolite madeirone and neomarinone extracted from Streptomyces aculeoletus as marine antibiofilm and antifouling agents” (Frontiers in Chemistry, 2024).

Like-named read-outs stand apart in the source and are kept apart here.

The series relates to Daphnia magna. As to conditions: 100 µg/mL. How it is done:
The in vivo evaluation of compounds (1) and (2) for acute toxicity was performed towards marine bacterium Aliivibrio fischeri, and planktonic crustacean Daphnia magna. The chronic ecotoxicity tests were evaluated using algae Pseudokirchneriella subcapitata and Phaeodactylum tricornutum.
The immobilization of D. magna at 24 h and 48 h was studied following a micro adaptation of the OECD Guideline 202 procedures (“Daphnia sp., Acute Immobilisation Test and Reproduction Test”), using the Daphtoxkit F (Microbiotests, Gent, Belgium). Firstly, the ISO matrix medium was prepared, aerated and adjusted to pH 7. Next, the neonate daphnids were incubated for 72 h at 20 ± 1°C with light and fed spirulina 2 h prior to use, according to the manufacturer’s instructions. […] For the miniaturization of the procedure, one daphnid neonate was exposed to each compound in 10 mL sterile tubes containing 2 mL of ISO matrix medium, with the compounds at the determined concentrations. The assays were performed in triplicate.

With `CC1=CCC[C@@H](C)[C@]1(C)CC[C@@]1(C)c2c(O)cc3c(c2O[C@@H]1C)C(=O)C(C)=C(O)C3=O` [compound 2, neomarinone], the “Inhibition (%) D. magna (immobilization)” value is, setting by setting: (listed as Neomarinone (2)) 33.0%; (listed as neomarinone (2)) 33%.
